Where a SMILES comes first, the peptide text is derived from it.
target: HLA A*3201 (Homo sapiens, UniProt P04439, A270S/D101S/D185E/E176V/E277Q/F133L/G103R/G107R/G231S/H175R/I121M/I218V/I322F/K168Q/L105A/L300P/L318F/M331R/P208A/P217A/Q94H/R106L/R138Q/S129P/T104I/T323A/T345S/V100E/V321M/V358M); experiment: biochemical; format: binding

Compound | IC50
CC[C@H](C)[C@H](NC(=O)[C@H](CCSC)NC(=O)[C@H](CC(=O)O)NC(=O)[C@H](CCSC)NC(=O)[C@@H](N)CC(C)C)C(=O)N[C@H](C(=O)N[C@@H](CC(C)C)C(=O)N[C@@H](CO)C(=O)N[C@@H](CC(C)C)C(=O)O)[C@@H](C)O [3102.0448] (H-LMDMITLSL-OH) | 30 nM
CC[C@H](C)[C@H](NC(=O)CNC(=O)[C@H](CC(C)C)NC(=O)[C@@H](NC(=O)[C@H](CC(C)C)NC(=O)[C@H](Cc1ccc(O)cc1)NC(=O)[C@H](CCSC)NC(=O)[C@@H](NC(=O)[C@@H](N)CCSC)[C@@H](C)CC)C(C)C)C(=O)O [3102.0477] (H-MIMYLVLGI-OH) | 98 nM
CC[C@H](C)[C@H](NC(=O)[C@H](CO)NC(=O)[C@@H](NC(=O)CNC(=O)[C@H](Cc1ccccc1)NC(=O)[C@H](CO)NC(=O)[C@H](CC(N)=O)NC(=O)[C@H](CC(C)C)NC(=O)[C@@H](N)CCCCN)C(C)C)C(=O)O [3102.0496] (H-KLNSFGVSI-OH) | 0.55 nM
CSCC[C@H](NC(=O)[C@@H](N)Cc1c[nH]cn1)C(=O)N[C@@H](CC(C)C)C(=O)N[C@@H](CCC(=O)O)C(=O)N[C@@H](Cc1ccccc1)C(=O)N[C@@H](CC(C)C)C(=O)N[C@@H](Cc1ccc(O)cc1)C(=O)N[C@@H](CO)C(=O)N[C@@H](Cc1ccccc1)C(=O)O [3102.0499] (H-HMLEFLYSF-OH) | 0.3 nM
CC[C@H](C)[C@H](NC(=O)[C@@H](NC(=O)[C@@H](NC(=O)[C@@H](NC(=O)[C@@H](NC(=O)[C@@H](NC(=O)[C@H](CC(N)=O)NC(=O)[C@@H](NC(=O)[C@@H](N)C(C)C)[C@@H](C)O)C(C)C)[C@@H](C)CC)[C@@H](C)CC)[C@@H](C)CC)C(C)C)C(=O)O [3102.0336] (H-VTNVIIIVI-OH) | 14 nM
CC[C@H](C)[C@H](NC(=O)[C@H](CC(N)=O)NC(=O)[C@H](Cc1ccccc1)NC(=O)[C@@H](NC(=O)[C@H](CCCCN)NC(=O)[C@H](Cc1ccccc1)NC(=O)[C@H](CC(N)=O)NC(=O)[C@@H](NC(=O)[C@H](C)N)[C@@H](C)CC)[C@@H](C)CC)C(=O)O [3102.0489] (H-AINFKIFNI-OH) | 22 nM
CC[C@H](C)[C@H](N)C(=O)N[C@H](C(=O)N[C@@H](Cc1ccc(O)cc1)C(=O)NCC(=O)N[C@@H](CCCNC(=N)N)C(=O)N[C@@H](CO)C(=O)N[C@@H](CC(N)=O)C(=O)N[C@@H](C)C(=O)N[C@H](C(=O)O)[C@@H](C)CC)C(C)C [3102.0369] (H-IVYGRSNAI-OH) | 3.2 nM
CC[C@H](C)[C@H](N)C(=O)N[C@@H](CC(C)C)C(=O)N1CCC[C@H]1C(=O)N[C@H](C(=O)N[C@H](C(=O)N[C@@H](Cc1ccccc1)C(=O)N[C@@H](CC(C)C)C(=O)N[C@@H](CO)C(=O)N[C@H](C(=O)O)[C@@H](C)CC)[C@@H](C)CC)C(C)C [3102.0375] (H-ILPVIFLSI-OH) | 4.5 nM
CC[C@H](C)[C@H](NC(=O)[C@H](CC(C)C)NC(=O)[C@H](Cc1c[nH]cn1)NC(=O)[C@H](Cc1ccccc1)NC(=O)[C@H](CC(N)=O)NC(=O)[C@H](Cc1ccccc1)NC(=O)[C@@H](NC(=O)[C@@H](NC(=O)[C@@H](N)CCCNC(=N)N)[C@@H](C)O)[C@@H](C)CC)C(=O)O [3102.0342] (H-RTIFNFHLI-OH) | 2.1 nM
CC[C@H](C)[C@H](NC(=O)[C@@H](NC(=O)[C@@H](NC(=O)[C@H](Cc1ccccc1)NC(=O)[C@H](Cc1ccccc1)NC(=O)[C@@H](NC(=O)[C@H](CC(C)C)NC(=O)[C@@H](NC(=O)[C@@H](N)CO)[C@@H](C)O)[C@@H](C)CC)C(C)C)[C@@H](C)CC)C(=O)O [3102.0317] (H-STLIFFVII-OH) | 18 nM
CC[C@H](C)[C@H](NC(=O)[C@H](Cc1ccccc1)NC(=O)[C@H](CC(C)C)NC(=O)[C@@H](NC(=O)[C@@H](N)CC(C)C)[C@@H](C)CC)C(=O)N[C@@H](CO)C(=O)N[C@H](C(=O)N1CCC[C@H]1C(=O)N[C@@H](Cc1ccccc1)C(=O)O)[C@@H](C)CC [3102.0290] (H-LILFISIPF-OH) | 25 nM
C[C@@H](O)[C@H](NC(=O)CN)C(=O)N[C@@H](Cc1c[nH]cn1)C(=O)N[C@@H](Cc1ccc(O)cc1)C(=O)N[C@@H](CCC(N)=O)C(=O)N[C@@H](CC(N)=O)C(=O)N[C@@H](Cc1c[nH]cn1)C(=O)NCC(=O)N[C@@H](Cc1ccccc1)C(=O)O [3102.0417] (H-GTHYQNHGF-OH) | 6 nM
CSCC[C@H](NC(=O)[C@@H](NC(=O)[C@@H](N)CCCCN)[C@@H](C)O)C(=O)N[C@@H](C)C(=O)N1CCC[C@H]1C(=O)N[C@H](C(=O)N[C@@H](Cc1c[nH]cn1)C(=O)N[C@H](C(=O)N[C@@H](Cc1ccc(O)cc1)C(=O)O)[C@@H](C)O)C(C)C [3102.0458] (H-KTMAPVHTY-OH) | 4.6 nM
CC[C@H](C)[C@H](NC(=O)[C@H](CO)NC(=O)[C@@H](NC(=O)[C@@H](NC(=O)[C@H](Cc1ccc(O)cc1)NC(=O)[C@H](CC(N)=O)NC(=O)[C@H](CO)NC(=O)[C@H](CC(C)C)NC(=O)[C@@H](N)Cc1c[nH]cn1)[C@@H](C)CC)C(C)C)C(=O)O [3102.0449] (H-HLSNYIVSI-OH) | 0.99 nM
CC[C@H](C)[C@H](NC(=O)[C@H](Cc1ccccc1)NC(=O)[C@H](CCCCN)NC(=O)[C@@H](NC(=O)[C@H](Cc1ccc(O)cc1)NC(=O)[C@H](CCC(N)=O)NC(=O)[C@@H](NC(=O)[C@@H](N)CC(C)C)C(C)C)[C@@H](C)CC)C(=O)N[C@@H](Cc1ccccc1)C(=O)O [3102.0413] (H-LVQYIKFIF-OH) | 20 nM
CC(C)C[C@H](NC(=O)[C@H](CO)NC(=O)[C@@H](N)CCCCN)C(=O)N[C@@H](CCCCN)C(=O)N[C@@H](CCCCN)C(=O)N[C@H](C(=O)N[C@@H](Cc1ccc(O)cc1)C(=O)N[C@H](C(=O)N[C@@H](Cc1ccccc1)C(=O)O)[C@@H](C)O)C(C)C [3102.0442] (H-KSLKKVYTF-OH) | 0.49 nM
CC[C@H](C)[C@H](NC(=O)[C@H](CC(N)=O)NC(=O)[C@H](CC(C)C)NC(=O)[C@@H](NC(=O)[C@@H](N)C(C)C)[C@@H](C)O)C(=O)N[C@@H](CO)C(=O)N[C@@H](CO)C(=O)N[C@@H](CCCCN)C(=O)N[C@@H](Cc1ccccc1)C(=O)O [3102.0324] (H-VTLNISSKF-OH) | 11 nM
CSCC[C@H](N)C(=O)N[C@H](C(=O)N[C@@H](CS)C(=O)NCC(=O)N[C@@H](CCC(N)=O)C(=O)N1CCC[C@H]1C(=O)N[C@@H](CC(C)C)C(=O)N[C@@H](CO)C(=O)N[C@@H](CC(C)C)C(=O)O)[C@@H](C)O [3102.0339] (H-MTCGQPLSL-OH) | 5.6 nM
CC[C@H](C)[C@H](NC(=O)[C@@H](NC(=O)[C@H](Cc1ccccc1)NC(=O)[C@H](Cc1ccccc1)NC(=O)[C@H](CC(C)C)NC(=O)[C@H](Cc1ccccc1)NC(=O)[C@H](CC(=O)O)NC(=O)[C@@H](NC(=O)[C@@H](N)CCCCN)[C@@H](C)CC)[C@@H](C)CC)C(=O)O [3102.0306] (H-KIDFLFFII-OH) | 2 nM
CC[C@H](C)[C@H](NC(=O)[C@@H](NC(=O)[C@@H](NC(=O)[C@H](Cc1c[nH]cn1)NC(=O)[C@H](CC(C)C)NC(=O)[C@H](CCSC)NC(=O)[C@H](CC(N)=O)NC(=O)[C@H](CCC(N)=O)NC(=O)[C@@H](N)CCCCN)C(C)C)[C@@H](C)CC)C(=O)O [3102.0329] (H-KQNMLHVII-OH) | 2.1 nM
CC[C@H](C)[C@H](NC(=O)[C@H](CCCCN)NC(=O)CNC(=O)[C@H](CC(N)=O)NC(=O)[C@@H](NC(=O)[C@@H](N)CCSC)[C@@H](C)O)C(=O)N[C@@H](CC(N)=O)C(=O)N[C@@H](CO)C(=O)N[C@@H](CC(C)C)C(=O)O [3102.0386] (H-MTNGKINSL-OH) | 22 nM
CC[C@H](C)[C@H](N)C(=O)N[C@H](C(=O)N[C@H](C(=O)N[C@@H](Cc1ccc(O)cc1)C(=O)N[C@@H](Cc1ccccc1)C(=O)N[C@@H](CCCNC(=N)N)C(=O)N[C@@H](CCCNC(=N)N)C(=O)N[C@H](C(=O)N[C@H](C(=O)O)[C@@H](C)CC)[C@@H](C)O)C(C)C)[C@@H](C)O [3102.0382] (H-ITVYFRRTI-OH) | 26 nM
CC(C)[C@H](NC(=O)[C@H](Cc1ccc(O)cc1)NC(=O)[C@@H](NC(=O)[C@@H](N)CCCNC(=N)N)C(C)C)C(=O)NCC(=O)N[C@@H](CC(N)=O)C(=O)N[C@H](C(=O)N[C@@H](C)C(=O)N[C@@H](Cc1c[nH]c2ccccc12)C(=O)O)C(C)C [3102.0520] (H-RVYVGNVAW-OH) | 1.1 nM
CC[C@H](C)[C@H](NC(=O)[C@H](CC(N)=O)NC(=O)[C@H](Cc1ccc(O)cc1)NC(=O)[C@H](CC(=O)O)NC(=O)[C@@H](NC(=O)[C@H](Cc1ccc(O)cc1)NC(=O)[C@H](CC(N)=O)NC(=O)[C@H](CC(C)C)NC(=O)[C@@H](N)CCSC)C(C)C)C(=O)O [3102.0374] (H-MLNYVDYNI-OH) | 1.6 nM
CC[C@H](C)[C@H](NC(=O)[C@H](CC(C)C)NC(=O)[C@H](CC(N)=O)NC(=O)[C@H](C)NC(=O)[C@H](Cc1ccccc1)NC(=O)[C@H](CCCNC(=N)N)NC(=O)[C@H](CO)NC(=O)[C@@H](NC(=O)[C@@H](N)CCCNC(=N)N)[C@@H](C)CC)C(=O)O [3102.0360] (H-RISRFANLI-OH) | 6.2 nM
CC[C@H](C)[C@H](NC(=O)[C@@H](NC(=O)[C@H](Cc1ccc(O)cc1)NC(=O)[C@H](CCC(=O)O)NC(=O)[C@H](CCCCN)NC(=O)[C@H](Cc1ccccc1)NC(=O)[C@H](CC(N)=O)NC(=O)[C@H](CC(C)C)NC(=O)[C@@H](N)C(C)C)[C@@H](C)O)C(=O)O [3102.0371] (H-VLNFKEYTI-OH) | 8.1 nM
CC[C@H](C)[C@H](N)C(=O)N[C@@H](CC(C)C)C(=O)N[C@@H](Cc1ccccc1)C(=O)N[C@@H](Cc1ccc(O)cc1)C(=O)N[C@@H](Cc1ccccc1)C(=O)N[C@@H](C)C(=O)N[C@@H](CC(N)=O)C(=O)NCC(=O)N[C@H](C(=O)O)[C@@H](C)CC [3102.1147] (H-ILFYFANGI-OH) | 93 nM
CC[C@H](C)[C@H](NC(=O)[C@@H]1CCCN1C(=O)[C@H](CC(C)C)NC(=O)[C@@H](NC(=O)[C@H](Cc1ccc(O)cc1)NC(=O)[C@H](Cc1ccccc1)NC(=O)[C@H](CCSC)NC(=O)[C@H](CC(C)C)NC(=O)[C@@H](N)Cc1c[nH]cn1)[C@@H](C)O)C(=O)O [3102.0397] (H-HLMFYTLPI-OH) | 0.18 nM

Reference: paper PMC2248166, “Quantitative peptide binding motifs for 19 human and mouse MHC class I molecules derived using positional scanning combinatorial peptide libraries” (Immunome Research, 2008)
